Legend:
[1] = biological target: AP2-associated protein kinase 1 (Homo sapiens) (UniProt Q2M2I8); assay: AAK1 SGC Tm panel (DSF); conditions: Compound concentration 20.0 uM
[2] = biological target: Casein kinase II subunit alpha' (Homo sapiens) (UniProt P19784); assay: CSNK2A2 SGC Tm panel (DSF); conditions: Compound concentration 20.0 uM
[3] = biological target: Ephrin type-A receptor 2 (Homo sapiens) (UniProt P29317); assay: EPHA2 SGC Tm panel (DSF); conditions: Compound concentration 20.0 uM
[4] = biological target: Dual specificity mitogen-activated protein kinase kinase 1 (Homo sapiens) (UniProt Q02750); assay: MAP2K1 SGC Tm panel (DSF); conditions: Compound concentration 20.0 uM
Chain of Dual specificity mitogen-activated protein kinase kinase 1 (Homo sapiens) (Q02750 whole entry): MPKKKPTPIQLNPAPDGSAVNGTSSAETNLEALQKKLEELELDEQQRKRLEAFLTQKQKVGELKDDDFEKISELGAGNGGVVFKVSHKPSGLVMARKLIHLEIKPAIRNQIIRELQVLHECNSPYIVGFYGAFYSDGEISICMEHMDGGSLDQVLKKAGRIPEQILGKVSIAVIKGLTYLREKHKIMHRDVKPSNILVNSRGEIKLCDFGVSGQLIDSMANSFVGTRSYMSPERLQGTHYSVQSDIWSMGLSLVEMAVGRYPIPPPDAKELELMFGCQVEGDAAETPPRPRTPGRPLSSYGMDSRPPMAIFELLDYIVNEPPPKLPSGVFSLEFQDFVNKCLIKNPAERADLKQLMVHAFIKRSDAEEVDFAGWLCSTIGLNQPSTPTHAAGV

[5] = biological target: Dual specificity mitogen-activated protein kinase kinase 6 (Homo sapiens) (UniProt P52564); assay: MAP2K6 SGC Tm panel (DSF); conditions: Compound concentration 20.0 uM
Chain of Dual specificity mitogen-activated protein kinase kinase 6 (Homo sapiens) (P52564 whole entry): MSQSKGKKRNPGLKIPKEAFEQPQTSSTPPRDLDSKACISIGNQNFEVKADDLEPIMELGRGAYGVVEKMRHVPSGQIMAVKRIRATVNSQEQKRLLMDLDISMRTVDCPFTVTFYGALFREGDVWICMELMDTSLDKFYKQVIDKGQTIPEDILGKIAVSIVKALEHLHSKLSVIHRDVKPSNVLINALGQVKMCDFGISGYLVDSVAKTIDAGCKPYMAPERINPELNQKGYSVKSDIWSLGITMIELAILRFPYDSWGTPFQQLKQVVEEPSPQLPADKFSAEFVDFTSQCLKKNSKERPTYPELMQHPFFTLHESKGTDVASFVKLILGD

[6] = biological target: Mitogen-activated protein kinase 9 (Homo sapiens) (UniProt P45984); assay: MAPK9 SGC Tm panel (DSF); conditions: Compound concentration 20.0 uM
Chain of Mitogen-activated protein kinase 9 (Homo sapiens) (P45984 whole entry, looked up): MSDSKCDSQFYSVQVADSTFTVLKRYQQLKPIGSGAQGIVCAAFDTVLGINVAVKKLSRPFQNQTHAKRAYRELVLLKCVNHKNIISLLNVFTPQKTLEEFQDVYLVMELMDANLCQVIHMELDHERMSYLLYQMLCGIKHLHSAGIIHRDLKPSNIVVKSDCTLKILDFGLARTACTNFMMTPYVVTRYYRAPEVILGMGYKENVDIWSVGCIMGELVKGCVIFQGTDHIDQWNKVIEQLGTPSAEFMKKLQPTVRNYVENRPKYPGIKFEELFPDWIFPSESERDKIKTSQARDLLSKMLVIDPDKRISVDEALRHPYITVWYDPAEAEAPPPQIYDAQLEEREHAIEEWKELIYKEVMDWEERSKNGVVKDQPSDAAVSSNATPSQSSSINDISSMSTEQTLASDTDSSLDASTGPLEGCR

[7] = biological target: Serine/threonine-protein kinase 4 (Homo sapiens) (UniProt Q13043); assay: STK4 SGC Tm panel (DSF); conditions: Compound concentration 20.0 uM
Chain of Serine/threonine-protein kinase 4 (Homo sapiens) (Q13043 whole entry): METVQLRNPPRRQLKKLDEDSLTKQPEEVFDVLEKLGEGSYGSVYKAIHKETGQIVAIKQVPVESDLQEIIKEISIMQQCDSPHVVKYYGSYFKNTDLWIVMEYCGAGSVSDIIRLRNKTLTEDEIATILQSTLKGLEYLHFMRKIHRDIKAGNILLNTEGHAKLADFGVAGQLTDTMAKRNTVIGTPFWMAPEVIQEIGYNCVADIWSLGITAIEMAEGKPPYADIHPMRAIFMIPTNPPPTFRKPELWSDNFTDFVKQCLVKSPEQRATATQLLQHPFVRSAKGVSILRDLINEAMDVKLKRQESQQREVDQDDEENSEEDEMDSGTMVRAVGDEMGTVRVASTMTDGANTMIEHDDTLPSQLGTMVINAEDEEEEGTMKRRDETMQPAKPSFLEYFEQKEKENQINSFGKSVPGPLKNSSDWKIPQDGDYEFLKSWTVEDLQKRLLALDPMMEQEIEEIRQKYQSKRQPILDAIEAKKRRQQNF

[8] = biological target: 5-hydroxytryptamine receptor 2B (Homo sapiens) (UniProt P41595); conditions: Compound concentration 10.0 uM
Chain of 5-hydroxytryptamine receptor 2B (Homo sapiens) (P41595 whole entry): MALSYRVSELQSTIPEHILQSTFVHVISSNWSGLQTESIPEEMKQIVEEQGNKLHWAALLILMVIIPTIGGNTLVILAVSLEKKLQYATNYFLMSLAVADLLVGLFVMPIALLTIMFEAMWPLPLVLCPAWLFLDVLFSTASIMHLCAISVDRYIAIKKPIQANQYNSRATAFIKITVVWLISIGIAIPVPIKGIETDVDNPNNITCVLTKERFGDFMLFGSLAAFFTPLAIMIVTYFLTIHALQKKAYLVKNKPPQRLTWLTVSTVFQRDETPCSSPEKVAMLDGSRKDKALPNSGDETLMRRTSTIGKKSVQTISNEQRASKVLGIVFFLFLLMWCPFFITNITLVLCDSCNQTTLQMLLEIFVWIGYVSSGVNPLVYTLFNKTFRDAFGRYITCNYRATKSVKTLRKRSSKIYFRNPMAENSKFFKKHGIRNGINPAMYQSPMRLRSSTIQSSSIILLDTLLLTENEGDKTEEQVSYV

[9] = biological target: Alpha-1A adrenergic receptor (Homo sapiens) (UniProt P35348); conditions: Compound concentration 10.0 uM
Chain of Alpha-1A adrenergic receptor (Homo sapiens) (P35348 whole entry): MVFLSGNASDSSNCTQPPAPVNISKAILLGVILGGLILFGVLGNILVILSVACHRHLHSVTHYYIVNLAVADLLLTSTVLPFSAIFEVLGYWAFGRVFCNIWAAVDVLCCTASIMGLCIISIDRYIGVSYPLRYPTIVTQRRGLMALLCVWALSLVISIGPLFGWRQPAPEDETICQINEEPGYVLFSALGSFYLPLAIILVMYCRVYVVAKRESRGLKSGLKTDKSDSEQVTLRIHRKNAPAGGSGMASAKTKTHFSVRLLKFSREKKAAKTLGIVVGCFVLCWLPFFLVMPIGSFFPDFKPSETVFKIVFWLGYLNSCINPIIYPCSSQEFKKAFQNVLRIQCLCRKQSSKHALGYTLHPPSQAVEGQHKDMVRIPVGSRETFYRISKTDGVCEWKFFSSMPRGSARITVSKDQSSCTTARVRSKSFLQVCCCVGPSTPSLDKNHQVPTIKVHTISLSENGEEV

[10] = biological target: Muscarinic acetylcholine receptor M5 (Homo sapiens) (UniProt P08912); conditions: Compound concentration 10.0 uM
Chain of Muscarinic acetylcholine receptor M5 (Homo sapiens) (P08912 whole entry): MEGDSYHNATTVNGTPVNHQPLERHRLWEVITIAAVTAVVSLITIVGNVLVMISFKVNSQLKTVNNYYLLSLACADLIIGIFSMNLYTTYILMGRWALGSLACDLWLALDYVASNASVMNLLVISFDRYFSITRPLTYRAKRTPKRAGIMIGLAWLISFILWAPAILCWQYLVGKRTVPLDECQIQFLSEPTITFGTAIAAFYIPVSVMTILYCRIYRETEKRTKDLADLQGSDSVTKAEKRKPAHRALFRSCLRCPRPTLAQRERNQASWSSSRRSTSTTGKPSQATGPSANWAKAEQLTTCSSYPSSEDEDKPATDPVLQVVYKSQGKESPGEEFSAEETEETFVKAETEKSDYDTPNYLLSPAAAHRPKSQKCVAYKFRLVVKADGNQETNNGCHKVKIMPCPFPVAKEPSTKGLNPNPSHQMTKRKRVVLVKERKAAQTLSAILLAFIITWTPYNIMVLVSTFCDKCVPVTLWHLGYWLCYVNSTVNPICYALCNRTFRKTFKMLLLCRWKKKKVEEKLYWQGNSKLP

[11] = biological target: B-cell lymphoma 6 protein (Homo sapiens, UniProt P41182); conditions: SUD4, Compound concentration 1.0 uM
[12] = biological target: T1, Zinc finger and BTB domain-containing protein 1 (Homo sapiens) (UniProt Q9Y2K1); conditions: SUD4, Compound concentration 1.0 uM
T1 sequence (whole entry): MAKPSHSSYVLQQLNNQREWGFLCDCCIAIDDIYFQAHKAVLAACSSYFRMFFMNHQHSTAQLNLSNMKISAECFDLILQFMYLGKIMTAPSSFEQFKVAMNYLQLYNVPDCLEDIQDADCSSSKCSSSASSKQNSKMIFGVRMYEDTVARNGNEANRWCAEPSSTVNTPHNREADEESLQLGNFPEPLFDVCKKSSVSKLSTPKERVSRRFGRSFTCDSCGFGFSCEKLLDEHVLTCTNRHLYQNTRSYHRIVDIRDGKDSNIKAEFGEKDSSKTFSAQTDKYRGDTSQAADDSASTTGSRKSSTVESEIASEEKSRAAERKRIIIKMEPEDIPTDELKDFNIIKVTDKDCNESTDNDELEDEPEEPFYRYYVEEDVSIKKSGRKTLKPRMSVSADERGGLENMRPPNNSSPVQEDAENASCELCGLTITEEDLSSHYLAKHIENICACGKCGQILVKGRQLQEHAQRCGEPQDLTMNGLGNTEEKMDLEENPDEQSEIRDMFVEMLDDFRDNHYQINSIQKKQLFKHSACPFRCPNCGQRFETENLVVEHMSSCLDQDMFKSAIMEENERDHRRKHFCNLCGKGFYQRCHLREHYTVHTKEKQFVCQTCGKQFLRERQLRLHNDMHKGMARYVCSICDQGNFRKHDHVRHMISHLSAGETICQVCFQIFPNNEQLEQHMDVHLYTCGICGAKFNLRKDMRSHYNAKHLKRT

Chain of Casein kinase II subunit alpha' (Homo sapiens) (P19784 whole entry, looked up): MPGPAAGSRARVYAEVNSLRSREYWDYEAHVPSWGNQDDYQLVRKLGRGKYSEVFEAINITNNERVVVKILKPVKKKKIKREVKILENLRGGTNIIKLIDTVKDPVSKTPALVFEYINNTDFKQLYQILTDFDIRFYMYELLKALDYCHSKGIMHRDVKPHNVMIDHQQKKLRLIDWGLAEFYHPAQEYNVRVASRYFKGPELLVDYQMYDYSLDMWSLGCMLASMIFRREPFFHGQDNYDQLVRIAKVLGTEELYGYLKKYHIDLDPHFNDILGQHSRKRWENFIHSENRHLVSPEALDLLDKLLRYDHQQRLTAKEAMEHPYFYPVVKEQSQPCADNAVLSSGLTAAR
Chain of AP2-associated protein kinase 1 (Homo sapiens) (Q2M2I8 whole entry, looked up): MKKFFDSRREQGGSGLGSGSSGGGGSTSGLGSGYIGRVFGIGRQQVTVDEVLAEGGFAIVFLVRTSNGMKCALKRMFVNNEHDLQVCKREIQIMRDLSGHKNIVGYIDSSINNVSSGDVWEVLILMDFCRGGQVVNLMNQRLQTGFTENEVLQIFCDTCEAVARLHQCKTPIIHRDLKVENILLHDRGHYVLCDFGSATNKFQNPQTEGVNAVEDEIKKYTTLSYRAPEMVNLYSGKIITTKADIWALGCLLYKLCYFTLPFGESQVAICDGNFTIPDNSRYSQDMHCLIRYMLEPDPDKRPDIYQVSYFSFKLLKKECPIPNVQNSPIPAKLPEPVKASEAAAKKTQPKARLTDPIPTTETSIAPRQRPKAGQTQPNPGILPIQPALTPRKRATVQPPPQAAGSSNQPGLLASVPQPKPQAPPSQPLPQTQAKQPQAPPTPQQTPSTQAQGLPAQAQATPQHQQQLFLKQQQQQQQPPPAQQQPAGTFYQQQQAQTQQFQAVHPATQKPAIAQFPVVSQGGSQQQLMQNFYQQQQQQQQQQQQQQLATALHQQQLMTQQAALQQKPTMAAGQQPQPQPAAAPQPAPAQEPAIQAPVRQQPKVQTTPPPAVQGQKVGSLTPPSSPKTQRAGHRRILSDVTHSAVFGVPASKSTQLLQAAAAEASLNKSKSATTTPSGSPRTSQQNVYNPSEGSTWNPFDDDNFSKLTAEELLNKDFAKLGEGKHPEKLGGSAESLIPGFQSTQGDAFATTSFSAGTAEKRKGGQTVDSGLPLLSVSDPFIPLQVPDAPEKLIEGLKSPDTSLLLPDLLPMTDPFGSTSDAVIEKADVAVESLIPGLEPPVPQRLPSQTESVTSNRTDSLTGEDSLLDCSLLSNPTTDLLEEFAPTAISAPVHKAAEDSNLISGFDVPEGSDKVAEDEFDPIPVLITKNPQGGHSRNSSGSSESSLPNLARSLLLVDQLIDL

Tm [1]: 47 °C
Tm [2]: 43 °C
Tm [3]: 46 °C
Tm [4]: 45 °C
Tm [5]: 45 °C
Tm [6]: 54 °C
Tm [7]: 46 °C
inhibition [8]: 34.6%
inhibition [9]: 7.7%
inhibition [10]: 20.6%
LogFC [11]: -1.13
LogFC [12]: -0.0255
SMILES: C[C@@H]1CN(c2ncc(Cl)c(Nc3ccc4c(c3)n(CCC(C)(C)O)c(=O)n4C)n2)C[C@H](C)C1(F)F

Source: ChEMBL document CHEMBL5058646 (2022)
